Reference: patent US12161663B2, “Compositions and methods for targeting cells” (Children's Medical Center Corporation, priority 2018, dated 2024)

Assays:
BV2 microglia cell line = test: WST-1 assay of PMA-induced ROS production; format: cell-based
Source text: The WST-1 assay allows to measure the ROS produced by cell cultures.

[1] = cited from earlier work
human recombinant TSPO = biological target: T1, human recombinant TSPO (Homo sapiens, UniProt P30536); test: Microscale thermophoresis (MST) binding to isolated TSPO; conditions: 5 nM red-tagged hTSPO
T1 construct: purchased LSBio
T1 sequence (P30536 whole entry): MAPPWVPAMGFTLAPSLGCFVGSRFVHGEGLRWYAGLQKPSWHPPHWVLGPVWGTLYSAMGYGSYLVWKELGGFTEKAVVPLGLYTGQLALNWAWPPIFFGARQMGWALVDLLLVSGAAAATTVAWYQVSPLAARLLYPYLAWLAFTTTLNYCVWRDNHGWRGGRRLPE
Procedure: The tests were performed by using isolated human recombinant TSPO (purchased from LSBio). The lyophilized protein was resuspended in Tris buffer and stored at −80° C. as per manufacturer instructions. Labelling with a deep-red fluorophore was performed by using the Monolith labeling kit-RED from Nanothemper. Briefly, 200 nM of hTSPO was resuspended in Tris/Sarkosyl 0.1% buffer and then mixed with a solution containing anti-His red-fluorophore at 100 nM concentration. After incubation for 30 minutes at RT, the mixture was centrifuged at 15000 g for 10 minutes at 4° C., to pellet any aggregate or precipitate. […] MST was then performed to assess binding.

Compound: c1ccc2c(c1)[I+]c1ccccc1-2 [DPI, diphenylene iodonium]
- effect on PMA-induced ROS (BV2 microglia cell line; co-incubation with PMA): able to counteract the induction of ROS

Compound: COc1cc(C(C)=O)cc(-c2cc(C(C)=O)cc(OC)c2O)c1O [Diapocynin]
- concentration inhibiting the PMA-induced increase of ROS (BV2 microglia cell line; PMA 50 ng/ml, nominal concentration for encapsulated drug): ≥ 50 µM
- pKa [1]: 7.4

Compound: CCC(C)N(C)C(=O)c1cc2ccccc2c(-c2ccccc2Cl)n1 (stereo not drawn) [PK11195]
- change in MST profile of tagged hTSPO (human recombinant TSPO; ligand 250 μM): significant change in the MST profile

Compound: CCCCCCCCCCCCCC(=O)O[C@@H]1[C@@H](C)[C@@]2(O)[C@@H](C=C(CO)C[C@]3(O)C(=O)C(C)=C[C@@H]23)[C@@H]2C(C)(C)[C@]12OC(C)=O [PMA, phorbol ester myristate acetate]
- increase of ROS production as compared to untreated control (BV2 microglia cell line; 50 ng/ml for 6 hours): 30-40%

Compound: CN1C(=O)CN=C(c2ccc(Cl)cc2)c2cc(Cl)ccc21 [Ro5-4864]
- change in MST profile of tagged hTSPO / binding (human recombinant TSPO; tested at 500 μM): significant change in the MST profile
